{
  "source": "patent US8889878B2",
  "about": "“Haloalky-substituted amides as insecticides and acaricides” (Bayer CropScience AG, priority 2009, dated 2014)",
  "key": {"Musca domestica adults [1]": {"system": "Musca domestica adults", "experiment": "Musca domestica test (MUSCDO), Example 4", "assay_type": "in vivo", "settings": "application rate 20 ppm, treated sponge, after 2 days", "protocol": "(§1) Musca domestica Test (MUSCDO) • Solvent: dimethyl sulphoxide To prepare an active ingredient formulation, 10 mg of active ingredient are mixed with 0.5 ml of dimethyl sulphoxide, and the concentrate is diluted with water to the desired concentration. Vessels containing a sponge which has been treated with the active ingredient formulation of the desired concentration are populated with Musca domestica adults. After 2 days, the kill rate in % is determined. 100% means that all flies were killed; 0% means that no flies were killed."}, "Musca domestica adults [2]": {"system": "Musca domestica adults", "experiment": "Musca domestica test (MUSCDO), Example 14", "assay_type": "in vivo", "settings": "application rate 100 ppm, treated sponge, after 2 days", "outline": "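Compound dissolved in DMSO and diluted in water to the test concentration, then applied to a sponge in vessels holding adult flies. Percent kill scored after 2 days (100% = all flies dead).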"}, "Lucilia cuprina larvae": {"system": "Lucilia cuprina larvae", "experiment": "Lucilia cuprina test (LUCICU), Example 3", "assay_type": "in vivo", "settings": "application rate 20 ppm, treated horsemeat, after 2 days", "protocol": "as §1, with “Lucilia cuprina” for “Musca domestica”, “(LUCICU)” for “(MUSCDO)”, “horsemeat” for “a sponge”, “Lucilia cuprina larvae.” for “Musca domestica adults.”, “larvae” for “flies”"}, "Boophilus microplus [3]": {"system": "Boophilus microplus", "experiment": "Boophilus microplus test (BOOPMI injection), Example 1", "assay_type": "in vivo", "settings": "application rate 20 μg/animal, injected into abdomen, after 7 days", "outline": "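Compound in DMSO, diluted with water, injected into the abdomen of engorged ticks, which were then held in a climate-controlled room. Efficacy was scored after 7 days from fertile egg laying, with 100% meaning no tick laid fertile eggs.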"}, "Boophilus microplus [4]": {"system": "Boophilus microplus", "experiment": "Boophilus microplus test (BOOPMI injection), Example 11", "assay_type": "in vivo", "settings": "application rate 20 μg/animal, injected into abdomen, after 7 days", "outline": "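Efficacy rated from fertile egg laying: 100% means none of the ticks laid fertile eggs, read after 7 days. Compound, dissolved and diluted in DMSO, was delivered by abdominal injection, and ticks were kept in dishes under climate control.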"}, "[5]": {"experiment": "logP by HPLC on reverse-phase column (EEC Directive 79/831 Annex V.A8)", "assay_type": "physicochemical", "settings": "HPLC-MS", "protocol": "The logP values reported in the above Tables and Preparation Examples were determined according to EEC Directive 79/831 Annex V.A8 by HPLC (High Performance Liquid Chromatography) on a reverse-phase column (C18). Temperature 43° C."}, "Ctenocephalides felis": {"system": "Ctenocephalides felis", "experiment": "Ctenocephalides felis oral (CTECFE), Example 2", "assay_type": "in vivo", "settings": "application rate 20 ppm in citrated cow's blood, after 2 days", "outline": "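Compound in DMSO diluted into citrated cow's blood, offered to 20 unfed adult C. felis through a Parafilm membrane. Kill rate (%) scored after 2 days; 100% means all fleas dead.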"}, "[6]": {"system": "green peach aphid (Myzus persicae)", "experiment": "Myzus test (MYZUPE spray treatment), Example 17", "assay_type": "in vivo", "settings": "application rate 100 g/ha, china cabbage leaf discs sprayed, after 6 days", "outline": "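Efficacy recorded at 6 days as % kill, where 100% means every aphid dead and 0% none. Spray applied to Brassica pekinensis leaf discs bearing mixed-stage aphids; active ingredient dissolved in acetone with dimethylformamide and emulsifier, then diluted with emulsifier-containing water.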"}, "[7]": {"system": "Boophilus microplus females of the SP-resistant Parkhurst strain", "experiment": "Boophilus microplus test (DIP), Example 10", "assay_type": "in vivo", "settings": "application rate 100 ppm, after 7 days", "protocol": "Boophilus microplus Test (DIP)\nTest animals: adult engorged Boophilus microplus females of the SP-resistant Parkhurst strain • Solvent: dimethyl sulphoxide\n10 mg of active ingredient are dissolved in 0.5 ml of dimethyl sulphoxide. For the purpose of preparing a suitable formulation, the active ingredient solution is diluted with water to the concentration desired in each case.\nThis active ingredient formulation is pipetted into tubes. 8-10 ticks are transferred into a further tube with holes. The tube is immersed into the active ingredient formulation, and all ticks are completely wetted. After the liquid has run out, the ticks are transferred onto filter discs in plastic dishes and stored in a climate-controlled room. The efficacy is assessed after 7 days by the number of fertile eggs laid. Eggs whose fertility is not outwardly visible are stored in glass tubes in a climate-controlled cabinet until the larvae hatch. Efficacy of 100% means that none of the ticks has laid any fertile eggs."}, "[8]": {"system": "armyworm (Spodoptera frugiperda)", "experiment": "Spodoptera frugiperda test (SPODFR spray treatment), Example 15", "assay_type": "in vivo", "settings": "application rate 100 g/ha, maize leaf discs sprayed, after 7 days", "outline": "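Caterpillars placed on dried, sprayed Zea mays leaf discs; formulation of acetone, dimethylformamide and emulsifier diluted with emulsifier-containing water to test concentration. Percent kill scored on day 7.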"}, "[9]": {"system": "Tick nymphs (Amblyomma hebraeum)", "experiment": "Amblyomma hebaraeum test (AMBYHE), Example 9", "assay_type": "in vivo", "settings": "application rate 100 ppm, immersed one minute, after 42 days", "protocol": "Amblyomma hebaraeum Test (AMBYHE) • Solvent: dimethyl sulphoxide To prepare an appropriate active ingredient formulation, 10 mg of active ingredient are mixed with 0.5 ml of dimethyl sulphoxide, and the concentrate is diluted with water to the desired concentration. Tick nymphs (Amblyomma hebraeum) are placed into perforated plastic cups and immersed in the desired concentration for one minute. The ticks are transferred onto filter papers in a Petri dish and stored in a climate-controlled cabinet. After 42 days, the kill rate in % is determined. 100% means that all ticks were killed; 0% means that no ticks were killed."}},
  "data": [
    {"compound": "CC(NC(=O)c1ccc(/C=C/C(=O)NC(c2cccc(C(F)(F)F)c2)C(F)(F)F)cc1C(F)(F)F)C(F)(F)F", "note": "(centres unmarked) [Ia-30]", "values": [
      {"measurement": "kill rate in % (efficacy)", "setting": "Musca domestica adults [1]", "value": 85, "unit": "%"},
      {"measurement": "kill rate in % (efficacy)", "setting": "Musca domestica adults [2]", "value": 100, "unit": "%"},
      {"measurement": "kill rate in % (efficacy)", "setting": "Lucilia cuprina larvae", "value": 100, "unit": "%"},
      {"measurement": "efficacy in % (fertile eggs laid)", "setting": "Boophilus microplus [3]", "value": 100, "unit": "%"},
      {"measurement": "efficacy in % (fertile eggs laid)", "setting": "Boophilus microplus [4]", "value": 100, "unit": "%"},
      {"measurement": "logP", "setting": "[5]", "value": "HPLC-MS: logP = 3.58; mass"},
      {"measurement": "kill rate in % (efficacy)", "setting": "Ctenocephalides felis", "value": 100, "unit": "%"}
    ]},
    {"compound": "C#CC(C)NC(=O)c1ccc(/C=C/C(=O)NC(c2cccc(C(F)(F)F)c2)C(F)(F)F)cc1Cl", "note": "(centres unmarked) [Ia-161]", "values": [
      {"measurement": "efficacy in %", "setting": "[6]", "value": 90, "unit": "%"},
      {"measurement": "kill rate in % (efficacy)", "setting": "Musca domestica adults [2]", "value": 80, "unit": "%"},
      {"measurement": "efficacy in % (fertile eggs laid)", "setting": "Boophilus microplus [4]", "value": 100, "unit": "%"},
      {"measurement": "logP", "setting": "[5]", "value": "HPLC-MS: logP = 3.43; mass"},
      {"measurement": "efficacy in % (fertile eggs laid)", "setting": "[7]", "value": 98, "unit": "%"},
      {"measurement": "efficacy in %", "setting": "[8]", "value": 100, "unit": "%"},
      {"measurement": "kill rate in % (efficacy)", "setting": "[9]", "value": 100, "unit": "%"}
    ]}
  ]
}
